Experiments:
Assay in all cases: relative viability (nuclei count vs DMSO), 5 days (fraction); higher = more cells survive
[1] = compound: CCN(CC)CCNC(=O)c1c(C)[nH]c(/C=C2\C(=O)Nc3ccc(F)cc32)c1C [Sunitinib] + CC(C)C[C@H](NC(=O)[C@H](Cc1ccccc1)NC(=O)c1cnccn1)B(O)O [Bortezomib] (partner 0.002 µM)
In short: (§1)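 Relative viability is defined as nuclei in treated wells over nuclei in vehicle wells. Duplicate plates were run and medians reported. Lung cancer cell lines in 1536-well plates were dosed by pin tool one day after seeding, with one drug or with a fixed anchor-drug dose plus five library-drug doses (not always all listed) in √10 steps, and nuclei were counted after 5 days.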

[2] = compound: CCN(CC)CCNC(=O)c1c(C)[nH]c(/C=C2\C(=O)Nc3ccc(F)cc32)c1C [Sunitinib] + CS(=O)(=O)CCNCc1ccc(-c2ccc3ncnc(Nc4ccc(OCc5cccc(F)c5)c(Cl)c4)c3c2)o1 [Lapatinib] (partner 2 µM)
In short: as §1

[3] = compound: CCN(CC)CCNC(=O)c1c(C)[nH]c(/C=C2\C(=O)Nc3ccc(F)cc32)c1C [Sunitinib] + NC(=O)Nc1cc(-c2cccc(F)c2)sc1C(=O)N[C@H]1CCCNC1 [AZD7762] (partner 0.2 µM)
In short: as §1

[4] = compound: CCN(CC)CCNC(=O)c1c(C)[nH]c(/C=C2\C(=O)Nc3ccc(F)cc32)c1C [Sunitinib] + Nc1ncn([C@H]2C[C@H](O)[C@@H](CO)O2)c(=O)n1 [Decitabine] (partner 2 µM)
In short: as §1

Cell Line | relative viability ([1]; first compound 0.02 µM) | relative viability ([1]; first compound 0.06325 µM) | relative viability ([1]; first compound 0.2 µM) | relative viability ([1]; first compound 0.6325 µM) | relative viability ([1]; first compound 2 µM) | relative viability ([2]; first compound 0.02 µM) | relative viability ([2]; first compound 0.06325 µM) | relative viability ([2]; first compound 0.2 µM) | relative viability ([2]; first compound 0.6325 µM) | relative viability ([2]; first compound 2 µM) | relative viability ([3]; first compound 0.02 µM) | relative viability ([3]; first compound 0.06325 µM) | relative viability ([3]; first compound 0.2 µM) | relative viability ([3]; first compound 0.6325 µM) | relative viability ([3]; first compound 2 µM) | relative viability ([4]; first compound 0.02 µM) | relative viability ([4]; first compound 0.06325 µM) | relative viability ([4]; first compound 0.2 µM) | relative viability ([4]; first compound 0.6325 µM) | relative viability ([4]; first compound 2 µM)
LC-2-ad | 0.883 | 1.04 | 1.05 | 1.07 | 0.932 | 0.916 | 1.11 | 1.07 | 0.904 | 0.581 | 0.796 | 0.889 | 0.983 | 0.844 | 0.873 | 0.788 | 0.777 | 0.82 | 0.728 | 0.714
LCLC-97TM1 | 0.653 | 0.967 | 0.713 | 0.774 | 0.757 | 1.06 | 0.81 | – | 0.924 | – | 0.265 | 0.163 | 0.234 | 0.224 | 0.288 | 0.232 | 0.225 | 0.238 | 0.212 | 0.223
LCLC-103H | 1.11 | 1.19 | 1.2 | 1.04 | 1.18 | – | – | – | – | – | 0.808 | 0.786 | 0.89 | 0.925 | 0.851 | 0.691 | 0.798 | 0.77 | 0.709 | 0.71
LOU-NH91 | 0.586 | 0.48 | 0.463 | 0.426 | 0.494 | 0.732 | 0.839 | 0.828 | 0.816 | 0.764 | – | 0.688 | 0.879 | 0.831 | 0.756 | 0.787 | 0.824 | 0.826 | 0.805 | 0.835
LU99A | 1 | 1.13 | 1.15 | 1.35 | 1.12 | 0.869 | 1.12 | 0.925 | 1.14 | 1.01 | 0.334 | 0.311 | 0.343 | 0.325 | 0.368 | 0.792 | 0.836 | 1.02 | 0.995 | 0.734
LXF-289 | 0.981 | 0.958 | 1.06 | 1.04 | 1.01 | 0.903 | – | 0.948 | 0.984 | – | 1.08 | 1.16 | 1.14 | 1.19 | 1.08 | 0.379 | 0.394 | 0.436 | 0.382 | 0.408
NCI-H23 | 0.871 | 1.45 | 1.17 | 1.44 | 0.945 | 1.1 | 1.42 | 1.44 | 1.36 | 1.08 | 0.287 | 0.281 | 0.36 | 0.226 | 0.241 | 0.293 | 0.351 | 0.328 | 0.307 | 0.329
NCI-H322M | 1.19 | 1.35 | 1.52 | 1.42 | 1.35 | 0.594 | 0.649 | 0.583 | 0.655 | 0.633 | 0.611 | 0.559 | 0.524 | 0.651 | 0.64 | 0.664 | 0.72 | 0.654 | 0.798 | 0.696
NCI-H441 | – | 1.05 | 0.533 | 0.281 | 0.558 | – | – | – | – | – | – | 1.25 | 1.36 | 1.24 | 1.17 | 0.271 | 0.285 | 0.266 | 0.271 | 0.317
NCI-H460 | 1.18 | 1.23 | 1.5 | 1.35 | 1.09 | 0.85 | – | 1.3 | 1.08 | 0.927 | 0.653 | 0.592 | 0.615 | 0.659 | 0.568 | 0.457 | 0.54 | 0.566 | 0.527 | 0.563
NCI-H596 | 0.996 | 1.16 | 0.999 | 1.08 | 1.33 | 0.987 | 1.14 | 1.22 | 1.19 | 1.08 | – | 1.12 | 1.18 | – | 0.858 | 0.895 | 0.902 | 1.16 | 1.01 | 0.962
NCI-H647 | 0.936 | 1.29 | 1.4 | 1.03 | 0.923 | 0.939 | 1.26 | 1.19 | 1.13 | 0.913 | 0.482 | 0.48 | 0.546 | 0.642 | 0.469 | 0.329 | 0.47 | 0.512 | 0.537 | 0.41
NCI-H650 | 0.884 | 0.819 | 0.916 | 1.03 | 1.09 | 1.09 | 1.33 | 0.807 | 0.925 | 0.964 | 0.882 | 1.15 | 0.945 | 1.1 | 0.944 | 0.341 | 0.291 | 0.321 | 0.325 | 0.321
NCI-H727 | 0.89 | 1.07 | 0.805 | 1.05 | 0.817 | 0.88 | 0.887 | 1.36 | 0.937 | 0.781 | 0.652 | 0.575 | 0.554 | 0.612 | 0.618 | 0.837 | 0.836 | 0.857 | 0.754 | 0.889
NCI-H838 | 0.831 | 1.04 | 0.914 | 0.859 | 0.744 | 0.885 | 1.38 | 1.22 | 1.09 | 0.894 | 0.956 | 0.907 | 1.01 | 0.993 | 0.884 | 0.447 | 0.489 | 0.476 | 0.485 | 0.448
NCI-H1703 | 0.249 | 0.218 | 0.176 | 0.19 | 0.176 | 0.633 | 0.264 | 0.318 | 0.245 | 0.284 | 0.136 | 0.146 | 0.127 | 0.138 | 0.122 | – | – | – | – | –
NCI-H1944 | – | – | – | – | – | 0.648 | 0.932 | 0.997 | 0.849 | 0.964 | 0.435 | 0.481 | 0.656 | 0.63 | 0.506 | 0.477 | 0.415 | 0.466 | 0.42 | 0.449
NCI-H2170 | – | – | – | – | – | 0.313 | 0.264 | 0.271 | 0.268 | 0.243 | 0.797 | 0.876 | 0.955 | 0.87 | 0.772 | 0.452 | 0.465 | 0.484 | 0.422 | 0.412
